Source: PMC9231250, “Cardio- and Neurotoxicity of Selected Anti-COVID-19 Drugs” (Pharmaceuticals, 2022)
pIC50: −log10 of the molar value. Structures can show the parent of a compound that is named as a salt. Where two headings read alike, the source gives them in different places.

Columns and labels:
[1] = following the clinical dosing regimen; cited from earlier work
[2] = system: Vero (African monkey epithelial) cells; details: cited from earlier work
[3] = system: Huh7.5 (human epithelial-like) cells; details: Huh7.5 cells; cited from earlier work
COVID-19 patients = details: cited from earlier work
hiPSC-NEURs [4] = experiment: Neurotoxicity screen, CellTiter-Glo cell viability in hiPSC-derived neurons; details: for pIC50: Homo sapiens, Neuron
hiPSC-CMs [5] = experiment: Cardiotoxicity screen, CellTiter-Glo cell viability in hiPSC-derived cardiomyocytes; details: 24 h; for pIC50: Homo sapiens, Cardiomyocyte, read-out: cardiotoxicity IC50; for cardiotoxicity (in words): hiPSC-CMs, CellTiter-Glo
hiPSC-CMs [6] = system: hiPSC-CMs
hiPSC-NEURs [7] = system: hiPSC-NEURs
[8] = 24 h, read-out: neurotoxicity IC50
[9] = hiPSC-NEURs, 24 h, CellTiter-Glo

Row | SMILES | plasma concentration, lower end [1] [µM] | plasma concentration, upper end [1] [µM] | cell toxicity [2] | cell toxicity [3] | adverse effects on the cardiovascular system (COVID-19 patients) | pIC50 (hiPSC-NEURs [4]; [8]) | pIC50 (hiPSC-NEURs [4]; read-out: neurotoxicity, individual variability between individuals (lowest)) | neurotoxicity (in words) (hiPSC-NEURs [4]; [9]) | pIC50 (hiPSC-CMs [5]) | cardiotoxicity (in words) (hiPSC-CMs [5]) | neurotoxicity (in words) (hiPSC-NEURs [4]; hiPSC-NEURs, 24 h, CellTiter-Glo, listed as Hydroxychloroquine) | further neurotoxicity on addition of azithromycin (hiPSC-NEURs [4]; hiPSC-NEURs, combined with 5 µM or 10 µM azithromycin, 24 h, CellTiter-Glo) | cardiotoxicity (in words) (hiPSC-CMs [6]) | neurotoxicity (in words) (hiPSC-NEURs [7]) | in-hospital mortality (COVID-19 patients; COVID-19 patients, 200 mg three times per day) | further neurotoxicity on addition of azithromycin (hiPSC-NEURs [7])
1 | CCC(CC)COC(=O)[C@H](C)N[P@](=O)(OC[C@H]1O[C@@](C#N)(c2ccc3c(N)ncnn23)[C@H](O)[C@@H]1O)Oc1ccccc1 [remdesivir] | ≥ 16.7 | ≤ 1700 | did not observe cell toxicity | did not observe cell toxicity | hypotension, atrial fibrillation rhythm, and sinus bradycardia | 4.39 | 5.52 | Neurotoxic | 4.29 | Cardiotoxic |  |  |  |  |  | 
2 | CCN(CCO)CCCC(C)Nc1ccnc2cc(Cl)ccc12 (stereo not shown) [hydroxychloroquine] |  |  | observe toxicity | observe toxicity |  | 4.28 |  | toxicity in neurons |  | not cardiomyocytes | Neurotoxic | did not induce further neurotoxicity |  |  |  | 
3 | CCOC(=O)c1c(CSc2ccccc2)n(C)c2cc(Br)c(O)c(CN(C)C)c12 [arbidol, arbidol hydrochloride] |  |  |  |  |  | 4.38 |  |  | 4.21 |  |  |  | Cardiotoxic | Neurotoxic | increased risk of in-hospital mortality | 
4 | CCN(CC)CCCC(C)Nc1ccnc2cc(Cl)ccc12 (stereo not shown) [chloroquine] |  |  |  |  |  | 4.15 |  |  |  |  |  |  |  | Neurotoxic |  | did not induce further neurotoxicity
